Laboratory results as given in PMC9782245, “Synthesis and Structural Optimization of 2,7,9-Trisubstituted purin-8-ones as FLT3-ITD Inhibitors” (International Journal of Molecular Sciences, 2022).

Assays:
TTK = target: T1, TTK (Homo sapiens, UniProt P33981); assay: Kinase selectivity panel at 1 µM (Eurofins), TTK; assay type: biochemical; conditions: read-out: residual enzyme activity TTK
T1 construct: purchased Eurofins Discovery (France)
T1 sequence (P33981 1-857): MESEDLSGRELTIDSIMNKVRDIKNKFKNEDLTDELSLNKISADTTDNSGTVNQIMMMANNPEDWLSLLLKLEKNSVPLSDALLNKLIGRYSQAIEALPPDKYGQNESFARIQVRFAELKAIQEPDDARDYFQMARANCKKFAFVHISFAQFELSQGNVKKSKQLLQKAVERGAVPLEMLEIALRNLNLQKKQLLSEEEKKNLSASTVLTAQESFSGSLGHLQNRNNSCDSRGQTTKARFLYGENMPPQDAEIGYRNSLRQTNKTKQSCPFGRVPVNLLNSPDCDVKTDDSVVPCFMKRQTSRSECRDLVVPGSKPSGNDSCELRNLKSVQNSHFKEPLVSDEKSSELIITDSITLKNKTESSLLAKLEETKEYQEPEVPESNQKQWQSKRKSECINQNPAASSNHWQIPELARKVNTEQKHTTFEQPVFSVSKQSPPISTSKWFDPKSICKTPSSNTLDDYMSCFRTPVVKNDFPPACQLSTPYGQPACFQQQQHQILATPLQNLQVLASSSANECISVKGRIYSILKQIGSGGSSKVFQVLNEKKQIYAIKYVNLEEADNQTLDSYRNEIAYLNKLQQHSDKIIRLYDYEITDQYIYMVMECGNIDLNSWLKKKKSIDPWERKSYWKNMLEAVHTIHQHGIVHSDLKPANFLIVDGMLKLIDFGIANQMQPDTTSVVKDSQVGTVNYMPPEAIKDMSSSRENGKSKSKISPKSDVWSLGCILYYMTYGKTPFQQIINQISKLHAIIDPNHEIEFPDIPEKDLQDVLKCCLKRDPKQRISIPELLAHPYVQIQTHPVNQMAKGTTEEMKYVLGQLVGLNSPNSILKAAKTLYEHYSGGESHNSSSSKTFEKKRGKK
Description: Three representative compounds (14d, 14e, and 15a) were profiled in a 1 µM concentration against 30 kinases that were selected as known off-targets of approved CDK4/6 inhibitors. […] Additional sensitive kinases include STK16, EphA1, MEKK2, SRC, and MER (≤10% of residual enzyme activities), which are not targets of the structurally similar CDK4/6 inhibitor, trilaciclib. We also screened compound 15a, an analogue of 14d, bearing isopropyl at position 7 of the purine instead of the methyl group. This change rapidly diminished the potency against CDK4 (dropped to 90% of residual enzyme activity), but the preference for FLT3 remained (1st rank) (Figure 2).
CDK/cyclin complexes and FLT3 kinases were assayed as previously described. Protein kinase selectivity was evaluated at a single concentration (1 µM) by screening against 30 enzymes at Eurofins Discovery (France).

MV4-11 xenograft = assay: MV4-11 subcutaneous xenograft model in NSG mice; assay type: in vivo; conditions: 20 mg/kg, daily i.p.
Text: Finally, we tested the in vivo activity of 15a in a model of AML based on subcutaneous xenotransplantation of MV4-11 cells in immunodeficient mice.
The experimental design was approved by the Institutional Animal Care and Use Committee (MSMT-37334/2020-4). Immunodeficient adult female NOD.Cg-Prkdc^scidIl2rg^tm1Wjl/SzJ mice (referred to as NSG mice) were purchased from The Jackson Laboratory and preserved in a pathogen-free environment in individually ventilated cages, provided with sterilized food and water. NSG mice were subcutaneously inoculated with 10 × 10^6 leukemia cells. […] Each cohort contained 6 animals. Three perpendicular dimensions (in millimeters) were measured daily with a digital caliper and tumor volumes were calculated using the following formula: π/6 × length × width × height. An experiment was terminated (and mice euthanized) when tumors exceeded 20 mm in the largest diameter.

[1] = Stability studied on Caco-2 cells; assay type: in vitro ADME; conditions: in comparison with trilaciclib

CC(C)n1c(=O)n(C2CCCC2)c2nc(Nc3ccc(N4CCNCC4)cc3)ncc21 [15a, 9-cyclopentyl-7-isopropyl-2-((4-(piperazin-1-yl)phenyl)amino)-7,9-dihydro-8H-purin-8-one]
remaining activity at 1 µM (TTK): ≤ 10% | mice weight during therapy (MV4-11 xenograft): no significant reduction in mice weight | growth of xenografted MV4-11 cells (MV4-11 xenograft; 7 days, vs vehicle): significant reduction in the growth

Cn1c(=O)n(C2CCCC2)c2nc(Nc3ccc(N4CCNCC4)cc3)ncc21 [14d]
melting point: 110 to 112 °C

Cn1c(=O)n(C2CCCCC2)c2nc(Nc3ccc(N4CCNCC4)cc3)ncc21 [14e]
stability (Caco-2 cells) [1]: substantially higher stability
